In test [1] the test system is mixed suspension of test germs (bacteria, yeasts, fungi). The test is described as follows: Preserving effect under repeated inoculation in humectant formulation 6940. The test is classed as cell-based. Also on record: key: −=no growth; ++=moderate growth; +++=massive growth. The procedure:
B) Humectant Formulation 6940
In accordance with Seppic formulation procedure, without preservative.
Using the described method, the effectiveness of chemical preservatives is tested with regard to the pack preservation for cosmetic formulations. For this purpose, in various experimental batches, the preservatives to be investigated are added to the unpreserved samples in various concentrations. A continuous germ burden is achieved by periodically inoculating the experimental batches. In parallel to the inoculation, streaks of each of the individual batches are in each case made immediately beforehand. Assessment is made by reference to the microbial growth of the streaks.
The bacteria are streaked uniformly over the entire surface of a CS nutrient medium using a sterile glass rod and incubated for 24 h at 30±1° C. The yeast C. albicans is streaked using a sterile glass rod on a Sabouraud nutrient medium and incubated for 48 h at 30±1° C.
The fungi A. niger and P. funiculosum are streaked using a sterile glass rod on one (A. niger) or two (P. funiculosum) Sabouraud plates (comprising 100 μg/ml of gentamycin and 50 μg/ml of chloramphenicol) and incubated for 7 to 14 days at 25±2° C.
To prepare the mixed suspensions, the bacteria, per strain one plate, are rinsed off with 5 ml of a sterile 0.85% NaCl solution per CSA plate, (sterile) filtered through a sterile glass funnel containing glass wool and made up to 150 ml with 0.85% NaCl solution. This bacteria suspension has a titre of ˜10^10 CFU/ml.
The yeast C. albicans is likewise rinsed off with 10 ml of sterile 0.85% NaCl solution from a Sabouraud plate and (sterile) filtered through a sterile glass funnel containing glass wool. 10 ml of each of the fungi suspensions (A. niger and P. funiculosum) prepared as described above are added to this suspension. 3 ml of the bacteria suspension prepared as described above (titre ˜10^10 CFU/ml) are added. The resulting mixed suspension is made to 150 ml with sterile 0.85% NaCl solution.
The bacteria titre of the mixed suspension is ˜10^8 CFU/ml. The titre for C. albicans in the mixed suspension is ˜10^8 CFU/ml. The titre for A. niger and P. funiculosum in the mixed suspension is ˜10^6 CFU/ml.
In separate batches, 25 or 50 g of the material to be preserved are in each case admixed with varying concentrations of the preservative to be investigated. The growth control used in each case is an unpreserved product sample.
The test batches are streaked onto CS and Sabouraud nutrient media once per week, the first streaking being carried out directly prior to reinoculation; these batches are then inoculated with the mixed suspension (in the case of 25 g samples with 0.1 ml, in the case of 50 g samples with 0.2 ml). The inoculated samples are incubated at 25° C.±2° C. over the entire experimentation period.
The microbial growth of the streaks incubated at 25° C.±2° C. is assessed after 3 to 4 days. To be on the safe side, negative streaks are observed for a further 2 days and reassessed. The preserving effect of the individual product concentrations is assessed in a semiquantitative method by means of the growth of the individual streaks according to the grading from “−” via “+” to “+++”. The test is usually carried out over 6 inoculation cycles or terminated after massive growth (+++) on two occasions.
If even after five successive inoculation cycles growth can be detected neither in the preserved samples nor in the unpreserved product sample (blank value), then the inoculation in the sixth inoculation cycle is carried out with five times the amount of the mixed suspension (0.5 ml in the case of 25 g samples, 1 ml in the case of 50 g samples).
A preservative is considered good if it exists under the laboratory conditions given above for a period of 6 weeks without germ infestation of the sample batches, i.e. even after the sixth inoculation, no microbial growth can be detected.

The test system is the same in test [2]. The test is described as follows: Preserving effect under repeated inoculation in the standard gel. In kind it is cell-based. The arrangement: key: −=no growth; −=slight growth; ++=moderate growth; +++=massive growth. To be noted: preservative 0.1%. On the procedure: CARBOPOL is dispersed in glycerol. In batches, the water and then NaOH are added thereto. The gel immediately becomes thick.
Using the described method, the effectiveness of chemical preservatives is tested with regard to the pack preservation for cosmetic formulations. For this purpose, in various experimental batches, the preservatives to be investigated are added to the unpreserved samples in various concentrations. A continuous germ burden is achieved by periodically inoculating the experimental batches. In parallel to the inoculation, streaks of each of the individual batches are in each case made immediately beforehand. Assessment is made by reference to the microbial growth of the streaks. […]
The microbial growth of the streaks incubated at 25° C.±2° C. is assessed after 3 to 4 days. […] The preserving effect of the individual product concentrations is assessed in a semiquantitative method by means of the growth of the individual streaks according to the grading from “−” via “+” to “+++”. […]
If even after five successive inoculation cycles growth can be detected neither in the preserved samples nor in the unpreserved product sample (blank value), then the inoculation in the sixth inoculation cycle is carried out with five times the amount of the mixed suspension (0.5 ml in the case of 25 g samples, 1 ml in the case of 50 g samples). […]

SMILES strings stand for the structures.

As for `CCCCC(CC)COCC(O)CO` (centres unmarked) [SENSIVA, 1-(2-ethylhexyl) glycerol ether], the “microbial growth of the streaks” value in test [1] (formulation 6940, preservative 0.1%, 4 days) is “−”; in test [1] (formulation 6940, preservative 0.1%, 10 days), “+++”; in test [1] (formulation 6940, preservative 0.1%, 17 days) it was “+++”; in test [1] (formulation 6940, preservative 0.2%, 4 days) it was “−”; in test [1] (formulation 6940, preservative 0.2%, 10 days) it was “+++”; in test [1] (formulation 6940, preservative 0.2%, 17 days), “+++”. Moreover, the “microbial growth of the streaks” value in test [1] (formulation 6940, preservative 0.3%, 4 days) is on record as “−”; in test [1] (formulation 6940, preservative 0.3%, 10 days), “+++”; in test [1] (formulation 6940, preservative 0.3%, 17 days), “+++”; in test [2] (10 days), “+++”; in test [2] (17 days), “+++”.

These data come from patent publication US8076363B2, “Isothiazolone-containing preservative with improved effectiveness” (Air Liquide Sante (International), priority 2005, dated 2011).
